Active and inactive are the calls of the source. No rule for the calls is given here.
Assay: Quorum luxo inducers, light production, v cholerae bh1651 luxod47e, confirmatory dose response (AID 624254)
Details: V. cholerae BH1651 luxOD47E, luciferase light induction, 6 h; at 50 µM (top of the series)

Row | SMILES | activation (light increase)
1 | CCC(=O)c1ccc(N2CCCCCC2)c(F)c1 | inactive
2 | CCCCn1nnnc1NCc1ccc(N(CC)CC)cc1 | inactive
3 | O=c1oc2c(CN3CCOCC3)c(O)c(Cl)cc2c2c1CCC2 | inactive
4 | CCC(C)NS(=O)(=O)c1ccc(S(=O)(=O)Nc2cc3c(cc2C(C)=O)OCO3)cc1 (stereo not given) | inactive
5 | COc1ccc(NS(=O)(=O)c2cccc(C(=O)N3CCCC(C)C3)c2)cc1 (stereo not given) | inactive
6 | CCC(CCC(=O)Nc1cccc(C(=O)O)c1)C(=O)O (stereo not given) | inactive
7 | CCNC(=O)OCc1cn(-c2ccccc2)nn1 | inactive
8 | CCN(CC(=O)Nc1ccccc1C(F)(F)F)C(=O)CN1C(=O)NC(C)(c2ccc3ccccc3c2)C1=O (stereo not given) | inactive
9 | Cc1cc(C)c(S(C)(=O)=O)c(Oc2ccc(C(C)(C)C)cc2)n1 | inactive
10 | Cc1cc(C)n2cc(COc3ccc4ccccc4c3)nc2n1 | inactive
11 | Cc1ccc(S(=O)(=O)NCCC(=O)OCC(=O)N(Cc2ccccc2)C(C)(C)C)cc1C | inactive
12 | COc1cc2c(cc1OC)C(c1ccc(C)cc1)NC(=O)C2 (stereo not given) | inactive
13 | COC(=O)c1sc2ncccc2c1OCc1c(Cl)cccc1Cl | inactive
14 | O=C(c1cn(-c2ccccc2)nc1-c1cccs1)N1CCOCC1 | inactive
15 | Clc1ncnc2scc(-c3ccccc3)c12 | inactive
16 | CC1(C)Nc2ccc(O)cc2-c2c1ssc2=S | inactive
17 | O=Cc1cc(OCc2ccccc2)ccc1B(O)O | inactive
18 | CN1CC(=O)N(CC(=O)Nc2ccc3c(c2)CCC3)C1=O | inactive

Row | SMILES | activation (light increase)
19 | COc1cc2c(c(OC)c1OC)C(c1ccc(C)cc1)CC(=O)O2 (stereo not given) | inactive
20 | O=C(Cc1ccc2c(c1)CCCC2)Nc1ccccc1Br | inactive
21 | CCC(C)Cn1c(S(=O)(=O)O)nc2ccccc21 (stereo not given) | inactive
22 | O=c1c2c3c(sc2ncn1Cc1ccc(F)cc1)CCC3 | inactive
23 | Cc1ccccc1OC(C)c1nc(-c2ccccc2)no1 (stereo not given) | inactive
24 | CCC(=O)NCCc1nc(-c2ccccc2)no1 | inactive
25 | O=C(NCCOc1ccc(Cl)cc1)c1ccco1 | inactive
26 | CC(=O)c1ccc(NC(=O)COc2ccccc2C(=O)Nc2ccccc2)cc1 | inactive
27 | CC1CCCN(C(=O)c2ccc3c(=O)n(Cc4ccc5c(c4)OCO5)c(=S)[nH]c3c2)C1 (stereo not given) | inactive
28 | C[C@H](CO)N1C[C@H](C)[C@@H](CN(C)S(=O)(=O)c2cccs2)Oc2c(NC(=O)C3CC3)cccc2C1=O | inactive
29 | Cc1occc1-c1nnc(SCC(=O)NCc2cccs2)n1-c1ccc(F)cc1 | inactive
30 | COc1ccc(-n2c(COc3ccccc3)nnc2SCc2ccc(C#N)cc2)cc1 | inactive
31 | Cc1ccc(S(=O)(=O)NCCC(=O)O)cc1 | inactive
32 | Cc1ccc(S(=O)(=O)Nc2cc(C(=O)NCCN(C)C)ccc2N2CCCCC2)cc1 | inactive
33 | C[C@@H]1CN([C@@H](C)CO)C(=O)c2cccc(NC(=O)Nc3ccc4c(c3)OCO4)c2O[C@H]1CN(C)S(=O)(=O)c1ccccc1 | inactive
34 | CCOC(=O)N1CCN(C(=S)NCCOC)CC1 | inactive
35 | O=C(c1ccccc1)N1CCC(c2nc(-c3ccc(S(=O)(=O)N4CCOCC4)cc3)no2)CC1 | inactive
